Test results from US20250320193A1, “OXOISOINDOLINYL SUBSTITUTED PIPERIDINEDIONE DERIVATIVE AND USE THEREOF” (GLUETACS THERAPEUTICS (SHANGHAI) CO., LTD., priority 2022, published 2025).

Legend:
IKZF1 = IKZF1 (Homo sapiens (Human), UniProt Q13422+Q96SW2); test: Western blot, substrate protein expression in hPBMC: IKZF1; type: cell-based; conditions: for substrate protein remaining % IKZF1: hPBMC, compound 500 nM, 24 hours, Western blot
Experimental: (§1) The effect of the compounds of the present disclosure on the expression of target proteins in cells was detected using conventional Western blot analysis.
(§2) Human peripheral blood mononuclear cells (hPBMCs) at a density of 1×10^6 cells/mL were thawed according to the PBMC Recovery Protocol (Milecell Biotechnologies Inc, Shanghai). […] After 24 hours of compounds treatment, cells were harvested and lysed in RIPA protein lysate containing phosphatase inhibitors on ice for 30-60 min, followed by centrifugation. The supernatant was aspirated as the extracted total cell protein. The protein concentration of the supernatant was determined using the conventional BCA (Bicinchoninic Acid) assay. The supernatant was then mixed with 4× SDS sample loading buffer, denatured at 95° C. for 5 minutes, and then subjected to SDS-PAGE electrophoresis on a polyacrylamide gel. Proteins were then transferred to a nitrocellulose (NC) membrane, blocked at room temperature for 1-2 h, and processed for antibody incubation and detection according to the manufacturer's instructions (Cell Signaling Technology).
(§3) Half-Maximal Degradation Concentration value (the drug concentration required for degrading proteins by 50%, abbreviated as DC50) reads method: comparing the grayscale values of Western blot bands from drug-treated samples (protein degrader compounds) with those from blank (DMSO-treated) controls, and identifying the drug concentration range at which the grayscale value is half that of the DMSO-treated control bands.
(§4) DC50 values can be calculated using ImageJ software to measure grayscale values of Western blot bands from drug-treated samples. The relationship curve between drug concentration and grayscale values is fitted to estimate the drug concentration corresponding to half the grayscale value.
(§5) Target protein remaining (%) refers to the percentage of target protein remaining in hPBMC cells after treatment with protein degrader compounds.
(§6) Calculation method for protein remaining (%): Use ImageJ software to measure grayscale values of Western blot bands from drug (protein degrader)-treated samples. The grayscale value of drug-treated bands is divided by that of internal control protein bands, and the resulting quotient is normalized to obtain the relative percentage of remaining target protein after protein degrader treatment.
(§7) Target protein degradation rate (%)=100%-target protein remaining (%).

IKZF3 = IKZF3 (Homo sapiens (Human), UniProt Q96SW2+Q9UKT9); test: Western blot, substrate protein expression in hPBMC: IKZF3; type: cell-based; conditions: for substrate protein remaining % IKZF3: hPBMC, compound 500 nM, 24 hours, Western blot
Experimental: as §1, §2, §3, §4, §5, §6, §7

GSPT1 = GSPT1 (Homo sapiens (Human), UniProt P15170+Q96SW2); test: Western blot, substrate protein expression in hPBMC: GSPT1; type: cell-based; conditions: hPBMC, compound 500 nM, 24 hours, Western blot
Experimental: as §1, §2, §3, §4, §5, §6, §7

[1] = target: human Cereblon WT GST-tagged protein (Homo sapiens (Human), UniProt Q96SW2); test: CRBN-binding affinity, HTRF (CEREBLON BINDING kit, CISBIO); conditions: HTRF inhibitory activity
Experimental: I. Determination of CRBN-binding affinity of compounds of the present disclosure:
The CEREBLON BINDING kits (specification: 10,000 tests; product number: Catalog #64BDCRBNPEH; CISBIO company) was used to determine the CRBN binding ability of the compounds to be tested through a HTRF method (homogeneous time-resolved fluorescence). The specific methods are as follows: • 1. […] Then, 2.5 μL of human Cereblon WT GST-tagged protein solution was added to each well. Finally, 5 μL of the thoroughly mixed Thalidomide-Red reagent and GST Eu antibody working solution were added to each of the aforementioned wells. […] The blank control wells were sequentially added with 2.5 μL of diluent #9 (1X) solution, 2.5 μL of PROTAC binding buffer, and 5 μL of thoroughly mixed Thalidomide-Red reagent and GST Eu antibody working solution. • 4.
The corresponding CRBN binding inhibition rate was calculated using the following method: […]
OD 620 nmcompound is the absorbance value of each well of the compounds to be tested of the present disclosure at an emission wavelength of 620 nm. […] OD 620 nmcontrol is the absorbance value of the blank control well at an emission wavelength of 620 nm. […] OD 620 nmStd0 is the absorbance value of the solvent control well at an emission wavelength of 620 nm.

Chain of GSPT1 (P15170 whole entry): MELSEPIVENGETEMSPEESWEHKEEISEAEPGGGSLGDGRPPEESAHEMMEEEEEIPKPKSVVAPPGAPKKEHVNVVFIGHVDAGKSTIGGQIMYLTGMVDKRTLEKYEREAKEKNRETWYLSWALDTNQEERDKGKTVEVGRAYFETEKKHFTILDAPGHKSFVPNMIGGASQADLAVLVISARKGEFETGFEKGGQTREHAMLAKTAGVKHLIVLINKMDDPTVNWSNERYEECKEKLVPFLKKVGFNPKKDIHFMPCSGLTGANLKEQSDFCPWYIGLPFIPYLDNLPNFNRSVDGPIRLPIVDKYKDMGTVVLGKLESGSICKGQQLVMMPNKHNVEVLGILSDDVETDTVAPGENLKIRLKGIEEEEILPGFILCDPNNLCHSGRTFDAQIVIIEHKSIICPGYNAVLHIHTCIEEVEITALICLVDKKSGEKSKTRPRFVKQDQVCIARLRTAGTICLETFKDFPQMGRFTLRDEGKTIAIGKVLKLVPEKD
Chain of GSPT1 (Q96SW2 whole entry): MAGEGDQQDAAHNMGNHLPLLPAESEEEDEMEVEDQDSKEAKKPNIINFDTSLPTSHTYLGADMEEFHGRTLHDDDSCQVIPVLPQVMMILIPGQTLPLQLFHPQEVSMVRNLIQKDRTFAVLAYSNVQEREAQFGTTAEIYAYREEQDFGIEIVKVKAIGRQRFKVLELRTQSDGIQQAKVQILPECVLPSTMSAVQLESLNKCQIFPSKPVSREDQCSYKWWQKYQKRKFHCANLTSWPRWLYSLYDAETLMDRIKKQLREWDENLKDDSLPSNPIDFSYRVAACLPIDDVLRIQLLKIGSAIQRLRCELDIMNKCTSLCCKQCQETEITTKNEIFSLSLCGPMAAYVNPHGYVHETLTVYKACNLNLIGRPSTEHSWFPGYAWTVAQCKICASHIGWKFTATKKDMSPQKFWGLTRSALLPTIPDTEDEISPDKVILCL
Chain of GSPT1 (Q16531 whole entry partner): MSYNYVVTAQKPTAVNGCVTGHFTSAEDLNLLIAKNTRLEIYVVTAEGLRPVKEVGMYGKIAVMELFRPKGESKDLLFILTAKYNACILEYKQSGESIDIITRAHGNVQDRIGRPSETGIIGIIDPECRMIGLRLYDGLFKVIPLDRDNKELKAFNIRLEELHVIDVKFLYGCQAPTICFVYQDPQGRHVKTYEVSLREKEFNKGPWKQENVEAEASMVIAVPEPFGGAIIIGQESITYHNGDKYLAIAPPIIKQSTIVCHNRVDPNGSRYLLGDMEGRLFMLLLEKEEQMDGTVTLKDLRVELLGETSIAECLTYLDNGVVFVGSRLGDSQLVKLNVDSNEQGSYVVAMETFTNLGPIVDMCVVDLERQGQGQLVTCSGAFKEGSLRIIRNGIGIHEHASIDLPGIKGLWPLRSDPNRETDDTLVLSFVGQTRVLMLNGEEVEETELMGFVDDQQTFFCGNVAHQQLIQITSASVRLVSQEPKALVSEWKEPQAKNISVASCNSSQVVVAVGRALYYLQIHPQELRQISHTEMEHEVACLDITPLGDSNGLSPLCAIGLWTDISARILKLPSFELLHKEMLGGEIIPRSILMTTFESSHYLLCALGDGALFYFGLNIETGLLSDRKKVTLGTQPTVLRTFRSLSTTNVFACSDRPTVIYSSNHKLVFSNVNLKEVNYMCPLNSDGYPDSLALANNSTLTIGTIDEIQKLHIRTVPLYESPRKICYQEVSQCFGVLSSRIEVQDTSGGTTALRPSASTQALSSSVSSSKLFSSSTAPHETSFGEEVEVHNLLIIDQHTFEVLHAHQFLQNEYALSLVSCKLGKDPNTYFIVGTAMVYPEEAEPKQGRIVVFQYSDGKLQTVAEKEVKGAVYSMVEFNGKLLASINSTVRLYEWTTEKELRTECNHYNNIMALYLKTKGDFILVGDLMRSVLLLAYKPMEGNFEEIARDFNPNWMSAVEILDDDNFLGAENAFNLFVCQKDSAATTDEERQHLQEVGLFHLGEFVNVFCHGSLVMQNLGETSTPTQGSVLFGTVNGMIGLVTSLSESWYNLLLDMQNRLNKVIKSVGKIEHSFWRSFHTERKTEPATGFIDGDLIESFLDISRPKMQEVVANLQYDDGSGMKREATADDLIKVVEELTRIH
Chain of IKZF3 (Q9UKT9 whole entry): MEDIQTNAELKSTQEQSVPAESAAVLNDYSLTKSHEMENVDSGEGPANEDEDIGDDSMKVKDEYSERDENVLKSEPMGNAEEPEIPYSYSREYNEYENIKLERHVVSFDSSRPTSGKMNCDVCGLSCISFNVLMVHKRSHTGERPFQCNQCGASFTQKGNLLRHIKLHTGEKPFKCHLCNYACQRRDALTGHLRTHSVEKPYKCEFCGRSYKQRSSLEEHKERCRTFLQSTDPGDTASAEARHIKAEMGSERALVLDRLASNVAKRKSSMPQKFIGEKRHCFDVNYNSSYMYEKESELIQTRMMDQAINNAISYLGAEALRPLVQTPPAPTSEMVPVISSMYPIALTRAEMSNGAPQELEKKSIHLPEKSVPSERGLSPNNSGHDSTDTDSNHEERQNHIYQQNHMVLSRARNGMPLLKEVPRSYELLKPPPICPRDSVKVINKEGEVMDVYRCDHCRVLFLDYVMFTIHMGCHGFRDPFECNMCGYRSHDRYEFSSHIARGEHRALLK
Chain of IKZF3 (Q96SW2 whole entry): as the sequence (Q96SW2 whole entry) above
Chain of IKZF3 (Q16531 whole entry partner): as the sequence (Q16531 whole entry partner) above
Chain of IKZF1 (Q13422 whole entry): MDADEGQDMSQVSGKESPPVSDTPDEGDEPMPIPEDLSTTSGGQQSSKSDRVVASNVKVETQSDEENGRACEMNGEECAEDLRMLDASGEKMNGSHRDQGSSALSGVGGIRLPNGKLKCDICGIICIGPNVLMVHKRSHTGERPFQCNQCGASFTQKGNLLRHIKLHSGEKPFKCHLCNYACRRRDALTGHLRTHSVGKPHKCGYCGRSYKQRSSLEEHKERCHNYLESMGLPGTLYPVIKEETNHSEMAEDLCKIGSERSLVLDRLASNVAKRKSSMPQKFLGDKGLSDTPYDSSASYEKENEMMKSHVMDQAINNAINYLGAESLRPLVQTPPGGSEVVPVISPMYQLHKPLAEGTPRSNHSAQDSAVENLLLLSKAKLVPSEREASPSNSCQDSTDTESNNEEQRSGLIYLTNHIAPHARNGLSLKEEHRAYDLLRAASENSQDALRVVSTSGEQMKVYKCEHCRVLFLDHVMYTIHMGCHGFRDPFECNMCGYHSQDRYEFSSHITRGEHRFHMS
Chain of IKZF1 (Q96SW2 whole entry): as the sequence (Q96SW2 whole entry) above
Chain of IKZF1 (Q16531 whole entry partner): as the sequence (Q16531 whole entry partner) above
Chain of human Cereblon WT GST-tagged protein (Q96SW2 whole entry): as the sequence (Q96SW2 whole entry) above

| Structure (SMILES) | IC50 [1] [nM] | substrate protein remaining % IKZF1 (IKZF1) | substrate protein remaining % IKZF3 (IKZF3) | substrate protein remaining % GSPT1 (GSPT1) | further results |
| --- | --- | --- | --- | --- | --- |
| O=C1CCC(N2Cc3c(ccc(CN4C5CC4CN(C(c4ccccc4)c4ccccc4)C5)c3F)C2=O)C(=O)N1 (stereo not drawn) [GT-03572, 3-(5-((3-benzhydryl-3,6-diazabicyclo[3.1.1]heptan-6-yl)methyl)-4-fluoro-1-oxoisoindolin-2-yl)piperidine-2,6-dione] |  | B (B represents substrate protein remaining % > 50%) | A (A represents 0% ≤ substrate protein remaining % ≤ 50%) | A (A represents 0% ≤ substrate protein remaining % ≤ 50%) |  |
| O=C1CCC(N2Cc3c(CN4CCN(C(c5ccc(Cl)cc5)c5ccc(Cl)cc5)CC4)cccc3C2=O)C(=O)N1 (stereo not drawn) [GT-03648, 3-(4-((4-(bis(4-chlorophenyl)methyl)piperazin-1-yl)methyl)-1-oxoisoindolin-2-yl)piperidine-2,6-dione] |  | B (B represents substrate protein remaining % > 50%) | B (B represents substrate protein remaining % > 50%) | A (A represents 0% ≤ substrate protein remaining % ≤ 50%) |  |
| O=C1CCC(N2Cc3cc(CN4CCN(C(c5cccnc5)c5cccnc5)CC4)c(F)cc3C2=O)C(=O)N1 (stereo not drawn) [GT-04386, 3-(5-((4-(di(pyridin-3-yl)methyl)piperazin-1-yl)methyl)-6-fluoro-1-oxoisoindolin-2-yl)piperidine-2,6-dione] |  | B (B represents substrate protein remaining % > 50%) | B (B represents substrate protein remaining % > 50%) | A (A represents 0% ≤ substrate protein remaining % ≤ 50%) |  |
| O=C1CCC(N2C(=O)c3ccc(CN4CCN(C(c5ccccc5)c5ccccc5)CC4)cc3C2=O)C(=O)N1 (stereo not drawn) [GT-05690, 5-((4-benzhydrylpiperazin-1-yl)methyl)-2-(2,6-dioxopiperidin-3-yl) isoindoline-1,3-dione] |  | A (A represents 0% ≤ substrate protein remaining % ≤ 50%) | A (A represents 0% ≤ substrate protein remaining % ≤ 50%) | A (A represents 0% ≤ substrate protein remaining % ≤ 50%) | concentration at which IKZF1 protein was significantly degraded (Western blot, FIG. 1) (IKZF1; hPBMCs): < 500 nM; concentration at which IKZF3 protein was significantly degraded (Western blot, FIG. 1) (IKZF3; hPBMCs): < 500 nM |
| O=C1CCC(N2C(=O)c3ccc(CN4CCN(C(c5ccccc5)c5ccccn5)CC4)cc3C2=O)C(=O)N1 (stereo not drawn) [GT-05723, 2-(2,6-dioxopiperidin-3-yl)-5-((4-(phenyl(pyridin-2-yl)methyl)piperazin-1-yl)methyl) isoindoline-1,3-dione] |  | B (B represents substrate protein remaining % > 50%) | B (B represents substrate protein remaining % > 50%) | A (A represents 0% ≤ substrate protein remaining % ≤ 50%) |  |
| O=C1CCC(N2C(=O)c3ccc(CN4CCN(C(c5ccc(F)cc5)c5ccc(F)cc5)CC4)cc3C2=O)C(=O)N1 (stereo not drawn) [GT-05726, 5-((4-(bis(4-fluorophenyl)methyl)piperazin-1-yl)methyl)-2-(2,6-dioxopiperidin-3-yl) isoindoline-1,3-dione] |  | B (B represents substrate protein remaining % > 50%) | A (A represents 0% ≤ substrate protein remaining % ≤ 50%) | A (A represents 0% ≤ substrate protein remaining % ≤ 50%) |  |
| O=C1CCC(N2C(=O)c3ccc(CN4CCN(C(c5ccc(Cl)cc5)c5ccc(Cl)cc5)CC4)cc3C2=O)C(=O)N1 (stereo not drawn) [GT-05727, 5-((4-(bis(4-chlorophenyl)methyl)piperazin-1-yl)methyl)-2-(2,6-dioxopiperidin-3-yl) isoindoline-1,3-dione] |  | B (B represents substrate protein remaining % > 50%) | A (A represents 0% ≤ substrate protein remaining % ≤ 50%) | A (A represents 0% ≤ substrate protein remaining % ≤ 50%) |  |
| O=C1CCC(N2Cc3cc(C(=O)N4CCN(C5c6cc(Cl)ccc6-c6ccc(Cl)cc65)CC4)ccc3C2=O)C(=O)N1 (stereo not drawn) [GT-06069, 3-(5-(4-(2,7-dichloro-9H-fluoren-9-yl)piperazine-1-carbonyl)-1-oxoisoindolin-2-yl)piperidine-2,6-dione] | 500 to 1000 |  |  |  |  |
| O=C1CCC(N2Cc3cc(NC4CCC(N(c5ccccc5)c5ccccc5)CC4)ccc3C2=O)C(=O)N1 (stereo not drawn) [GT-06806, 3-(5-((4-(diphenylamino)cyclohexyl)amino)-1-oxoisoindolin-2-yl)piperidine-2,6-dione] | 1000 to 1900 |  |  |  |  |

Further lines, with some results ahead:

| IC50 [1] [nM] | Structure (SMILES) | substrate protein remaining % IKZF1 (IKZF1) | substrate protein remaining % IKZF3 (IKZF3) | substrate protein remaining % GSPT1 (GSPT1) | further results |
| --- | --- | --- | --- | --- | --- |
| < 500 | O=C1CCC(N2Cc3c(ccc(C4=CCN(C(c5ccccc5)c5ccccc5)CC4)c3F)C2=O)C(=O)N1 (stereo not drawn) [GT-06072, 3-(5-(1-benzhydryl-1,2,3,6-tetrahydropyridin-4-yl)-4-fluoro-1-oxoisoindolin-2-yl)piperidine-2,6-dione] |  |  |  |  |
| < 500 | O=C1CCC(N2Cc3cc(CN4CCN(C(c5ccccc5)c5ccccc5)CC4C(F)(F)F)cc(F)c3C2=O)C(=O)N1 (stereo not drawn) [GT-06098, 3-(5-((4-benzhydryl-2-(trifluoromethyl)piperazin-1-yl)methyl)-7-fluoro-1-oxoisoindolin-2-yl)piperidine-2,6-dione] |  |  |  |  |
| < 500 | O=C1CCC(N2Cc3cc(CN4CCN(C(c5ccccc5)c5cccnc5)CC4)cc(F)c3C2=O)C(=O)N1 (stereo not drawn) [GT-06111, 3-(7-fluoro-1-oxo-5-((4-(phenyl(pyridin-3-yl)methyl)piperazin-1-yl)methyl)isoindolin-2-yl)piperidine-2,6-dione] |  |  |  |  |
| 500 to 1000 | O=C1CCC(N2Cc3c(CN4CCN(C(c5ccccc5)c5cccnc5)CC4)cccc3C2=O)C(=O)N1 (stereo not drawn) [GT-06113, 3-(1-oxo-4-((4-(phenyl(pyridin-3-yl)methyl)piperazin-1-yl)methyl)isoindolin-2-yl)piperidine-2,6-dione] |  |  |  |  |
| 500 to 1000 | O=C1CCC(N2Cc3ccc(CN4CCN(C(c5cccc(F)c5)c5cccc(F)c5)CC4)cc3C2=O)C(=O)N1 (stereo not drawn) [GT-06116, 3-(6-((4-(bis(3-fluorophenyl)methyl)piperazin-1-yl)methyl)-1-oxoisoindolin-2-yl)piperidine-2,6-dione] |  |  |  |  |
| < 500 | O=C1CCC(N2Cc3cc(CN4CCN(C(c5ccccc5)c5ccncc5)CC4)cc(F)c3C2=O)C(=O)N1 (stereo not drawn) [GT-06135, 3-(7-fluoro-1-oxo-5-((4-(phenyl(pyridin-4-yl)methyl)piperazin-1-yl)methyl)isoindolin-2-yl)piperidine-2,6-dione] |  |  |  |  |
| < 500 | O=C1CCC(N2Cc3c(ccc(C4CCN(C(c5ccccc5)c5ccccc5)CC4)c3F)C2=O)C(=O)N1 (stereo not drawn) [GT-06136, 3-(5-(1-benzhydrylpiperidin-4-yl)-4-fluoro-1-oxoisoindolin-2-yl)piperidine-2,6-dione] |  |  |  |  |
| 500 to 1000 | O=C1CCC(N2Cc3cc(C(=O)N4CCN(C(c5ccccc5)c5ccncc5)CC4)ccc3C2=O)C(=O)N1 (stereo not drawn) [GT-06144, 3-(1-oxo-5-(4-(phenyl(pyridin-4-yl)methyl)piperazine-1-carbonyl)isoindolin-2-yl)piperidine-2,6-dione] |  |  |  |  |
| 500 to 1000 | O=C1CCC(N2Cc3ccc(C(=O)N4CCN(C(c5cccc(F)c5)c5cccc(F)c5)CC4)cc3C2=O)C(=O)N1 (stereo not drawn) [GT-06149, 3-(6-(4-(bis(3-fluorophenyl)methyl)piperazine-1-carbonyl)-1-oxoisoindolin-2-yl)piperidine-2,6-dione] |  |  |  |  |
| 500 to 1000 | O=C1CCC(N2Cc3cccc(C(=O)N4CCN(C(c5cccc(F)c5)c5cccc(F)c5)CC4)c3C2=O)C(=O)N1 (stereo not drawn) [GT-06150, 3-(7-(4-(bis(3-fluorophenyl)methyl)piperazine-1-carbonyl)-1-oxoisoindolin-2-yl)piperidine-2,6-dione] |  |  |  |  |
| < 500 | O=C1CCC(N2Cc3cc(C4CCN(C(c5ccccc5)c5ccccc5)CC4)cc(F)c3C2=O)C(=O)N1 (stereo not drawn) [GT-06198, 3-(5-(1-benzhydrylpiperidin-4-yl)-7-fluoro-1-oxoisoindolin-2-yl)piperidine-2,6-dione] |  |  |  |  |
